According to US20220187282A1, “CARDIOMYOCYTE PROLIFERATION” (The Council of the Queensland Institute of Medical Research, priority 2019, published 2022):
Where two headings read alike, the source gives them in different places.

What was measured:
Assay type in all cases: biochemical
kinases [1] = molecular target: kinases (Homo sapiens, UniProt Q9Y4K4); details: MAP4K5 (KHS1) FRET-Z-Lyte SP; Test Conc(μM):ATP Conc(μM) 1:50
kinases [2] = molecular target: kinases (Homo sapiens, UniProt P19784); details: CSNK2A2 (CK2alpha2) Z-Lyte SP; Test Conc(μM):ATP Conc(μM) 1:50
kinases [3] = molecular target: kinases (Homo sapiens, UniProt Q56UN5); details: MAP3K19 (YSK4) FRET-Z-Lyte SP; Test Conc(μM):ATP Conc(μM) 1:5
kinases [4] = molecular target: kinases (Homo sapiens, UniProt P30530); details: AXL FRET-Z-Lyte SP; Test Conc(μM):ATP Conc(μM) 1:75
kinases [5] = molecular target: kinases (Homo sapiens, UniProt Q9H4A3); details: Test Conc(μM) 1
kinases [6] = molecular target: kinases (Homo sapiens, UniProt P49336); details: CDK8/cyclin C FRET-Lantha SP; Test Conc(μM) 1
kinases [7] = molecular target: kinases (Homo sapiens, UniProt P24723); details: PRKCH (PKC eta) Z-Lyte SP; Test Conc(μM):ATP Conc(μM) 1:25
kinases [8] = molecular target: kinases (Homo sapiens, UniProt Q5S007)
Chain of kinases (Homo sapiens, UniProt Q5S007) (Q5S007 whole entry): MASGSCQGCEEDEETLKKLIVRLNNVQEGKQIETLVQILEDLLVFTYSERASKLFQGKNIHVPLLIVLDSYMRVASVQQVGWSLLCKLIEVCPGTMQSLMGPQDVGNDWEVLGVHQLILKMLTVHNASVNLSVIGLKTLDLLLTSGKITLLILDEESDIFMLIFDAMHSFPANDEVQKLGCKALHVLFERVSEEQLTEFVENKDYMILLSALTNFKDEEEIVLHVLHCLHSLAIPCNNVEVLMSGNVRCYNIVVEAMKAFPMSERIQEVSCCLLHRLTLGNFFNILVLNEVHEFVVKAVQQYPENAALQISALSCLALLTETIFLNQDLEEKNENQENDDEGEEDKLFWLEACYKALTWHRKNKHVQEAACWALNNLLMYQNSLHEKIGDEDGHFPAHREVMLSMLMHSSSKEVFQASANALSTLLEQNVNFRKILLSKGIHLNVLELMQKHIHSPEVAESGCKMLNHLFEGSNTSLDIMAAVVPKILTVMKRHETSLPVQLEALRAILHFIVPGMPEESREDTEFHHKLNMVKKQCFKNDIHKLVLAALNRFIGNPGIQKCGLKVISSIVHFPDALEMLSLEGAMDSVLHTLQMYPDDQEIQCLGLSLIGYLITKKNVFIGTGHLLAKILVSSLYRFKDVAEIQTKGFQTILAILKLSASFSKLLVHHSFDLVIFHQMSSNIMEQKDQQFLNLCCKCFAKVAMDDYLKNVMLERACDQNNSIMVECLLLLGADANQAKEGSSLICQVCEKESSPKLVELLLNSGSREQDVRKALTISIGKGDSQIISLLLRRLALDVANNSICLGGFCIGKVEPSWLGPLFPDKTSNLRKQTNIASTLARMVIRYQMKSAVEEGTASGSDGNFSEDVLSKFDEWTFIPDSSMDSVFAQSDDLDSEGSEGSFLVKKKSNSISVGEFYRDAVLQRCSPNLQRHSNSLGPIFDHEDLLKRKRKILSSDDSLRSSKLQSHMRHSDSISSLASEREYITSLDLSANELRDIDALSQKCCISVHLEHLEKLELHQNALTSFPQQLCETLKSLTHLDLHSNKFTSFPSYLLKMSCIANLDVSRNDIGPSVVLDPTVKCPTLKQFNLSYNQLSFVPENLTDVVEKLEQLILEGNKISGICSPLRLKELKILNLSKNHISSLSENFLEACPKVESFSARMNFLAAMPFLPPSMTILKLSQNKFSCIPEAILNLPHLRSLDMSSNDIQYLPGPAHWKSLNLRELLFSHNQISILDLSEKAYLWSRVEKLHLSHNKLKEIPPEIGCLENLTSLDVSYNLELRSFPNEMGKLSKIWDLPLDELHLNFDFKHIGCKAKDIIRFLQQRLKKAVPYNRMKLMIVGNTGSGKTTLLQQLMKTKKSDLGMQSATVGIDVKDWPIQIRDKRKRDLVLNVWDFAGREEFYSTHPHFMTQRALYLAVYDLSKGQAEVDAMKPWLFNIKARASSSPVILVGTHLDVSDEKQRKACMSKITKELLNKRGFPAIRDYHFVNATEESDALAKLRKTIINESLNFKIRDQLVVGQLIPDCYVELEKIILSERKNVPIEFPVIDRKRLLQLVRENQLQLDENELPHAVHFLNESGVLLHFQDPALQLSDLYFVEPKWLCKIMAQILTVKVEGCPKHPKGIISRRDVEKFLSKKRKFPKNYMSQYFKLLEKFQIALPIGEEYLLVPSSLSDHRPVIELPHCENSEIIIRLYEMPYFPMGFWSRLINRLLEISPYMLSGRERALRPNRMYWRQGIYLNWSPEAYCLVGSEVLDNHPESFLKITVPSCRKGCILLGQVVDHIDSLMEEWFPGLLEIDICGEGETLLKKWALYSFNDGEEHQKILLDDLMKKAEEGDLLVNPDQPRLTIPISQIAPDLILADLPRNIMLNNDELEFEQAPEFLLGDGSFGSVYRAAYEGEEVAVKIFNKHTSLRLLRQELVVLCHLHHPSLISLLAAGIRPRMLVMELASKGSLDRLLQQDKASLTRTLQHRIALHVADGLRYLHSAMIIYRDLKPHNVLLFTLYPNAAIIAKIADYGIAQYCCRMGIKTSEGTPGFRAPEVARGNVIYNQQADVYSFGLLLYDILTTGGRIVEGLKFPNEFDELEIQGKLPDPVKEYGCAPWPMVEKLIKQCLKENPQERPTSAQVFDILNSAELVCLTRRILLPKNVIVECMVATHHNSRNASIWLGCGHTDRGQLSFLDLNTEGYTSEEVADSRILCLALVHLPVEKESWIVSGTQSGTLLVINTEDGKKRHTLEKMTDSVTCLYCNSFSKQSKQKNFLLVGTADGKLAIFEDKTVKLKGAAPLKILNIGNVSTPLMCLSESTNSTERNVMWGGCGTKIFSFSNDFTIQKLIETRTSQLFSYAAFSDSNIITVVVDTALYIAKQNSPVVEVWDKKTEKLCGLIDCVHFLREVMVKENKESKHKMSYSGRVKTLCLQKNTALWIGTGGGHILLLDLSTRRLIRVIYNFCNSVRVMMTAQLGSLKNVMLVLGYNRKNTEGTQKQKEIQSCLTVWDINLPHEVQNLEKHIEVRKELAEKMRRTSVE

kinases [9] = molecular target: kinases (Homo sapiens, UniProt O15146); details: MUSK *Mn* FRET-Z-Lyte SP; Test Conc(μM):ATP Conc(μM) 1:50
kinases [10] = molecular target: kinases (Homo sapiens, UniProt Q9BZL6); details: PRKD2 (PKD2) Z-Lyte SP; Test Conc(μM):ATP Conc(μM) 1:25
kinases [11] = molecular target: kinases (Homo sapiens, UniProt Q13470); details: TNK1 FRET-Z-Lyte SP; Test Conc(μM):ATP Conc(μM) 1:200
kinases [12] = molecular target: kinases (Homo sapiens, UniProt Q9HBH9); details: MKNK2 (MNK2) FRET-Lantha SP; Test Conc(μM) 1
kinases [13] = molecular target: kinases (Homo sapiens, UniProt Q96PF2); details: STK22B (TSSK2) FRET-Z-Lyte SP; Test Conc(μM):ATP Conc(μM) 1:5
kinases [14] = molecular target: kinases (Homo sapiens, UniProt P17612); details: PRKACA (PKA) FRET-Z-Lyte SP; Test Conc(μM):ATP Conc(μM) 1:5
kinases [15] = molecular target: kinases (Homo sapiens, UniProt Q8NI60); details: ADCK3 FRET-Lantha SP; Test Conc(μM) 1
kinases [16] = molecular target: kinases (Homo sapiens, UniProt O00750); details: PIK3C2B FRET-Adapta SP; Test Conc(μM):ATP Conc(μM) 1:10
Chain of kinases (Homo sapiens, UniProt O00750) (O00750 whole entry): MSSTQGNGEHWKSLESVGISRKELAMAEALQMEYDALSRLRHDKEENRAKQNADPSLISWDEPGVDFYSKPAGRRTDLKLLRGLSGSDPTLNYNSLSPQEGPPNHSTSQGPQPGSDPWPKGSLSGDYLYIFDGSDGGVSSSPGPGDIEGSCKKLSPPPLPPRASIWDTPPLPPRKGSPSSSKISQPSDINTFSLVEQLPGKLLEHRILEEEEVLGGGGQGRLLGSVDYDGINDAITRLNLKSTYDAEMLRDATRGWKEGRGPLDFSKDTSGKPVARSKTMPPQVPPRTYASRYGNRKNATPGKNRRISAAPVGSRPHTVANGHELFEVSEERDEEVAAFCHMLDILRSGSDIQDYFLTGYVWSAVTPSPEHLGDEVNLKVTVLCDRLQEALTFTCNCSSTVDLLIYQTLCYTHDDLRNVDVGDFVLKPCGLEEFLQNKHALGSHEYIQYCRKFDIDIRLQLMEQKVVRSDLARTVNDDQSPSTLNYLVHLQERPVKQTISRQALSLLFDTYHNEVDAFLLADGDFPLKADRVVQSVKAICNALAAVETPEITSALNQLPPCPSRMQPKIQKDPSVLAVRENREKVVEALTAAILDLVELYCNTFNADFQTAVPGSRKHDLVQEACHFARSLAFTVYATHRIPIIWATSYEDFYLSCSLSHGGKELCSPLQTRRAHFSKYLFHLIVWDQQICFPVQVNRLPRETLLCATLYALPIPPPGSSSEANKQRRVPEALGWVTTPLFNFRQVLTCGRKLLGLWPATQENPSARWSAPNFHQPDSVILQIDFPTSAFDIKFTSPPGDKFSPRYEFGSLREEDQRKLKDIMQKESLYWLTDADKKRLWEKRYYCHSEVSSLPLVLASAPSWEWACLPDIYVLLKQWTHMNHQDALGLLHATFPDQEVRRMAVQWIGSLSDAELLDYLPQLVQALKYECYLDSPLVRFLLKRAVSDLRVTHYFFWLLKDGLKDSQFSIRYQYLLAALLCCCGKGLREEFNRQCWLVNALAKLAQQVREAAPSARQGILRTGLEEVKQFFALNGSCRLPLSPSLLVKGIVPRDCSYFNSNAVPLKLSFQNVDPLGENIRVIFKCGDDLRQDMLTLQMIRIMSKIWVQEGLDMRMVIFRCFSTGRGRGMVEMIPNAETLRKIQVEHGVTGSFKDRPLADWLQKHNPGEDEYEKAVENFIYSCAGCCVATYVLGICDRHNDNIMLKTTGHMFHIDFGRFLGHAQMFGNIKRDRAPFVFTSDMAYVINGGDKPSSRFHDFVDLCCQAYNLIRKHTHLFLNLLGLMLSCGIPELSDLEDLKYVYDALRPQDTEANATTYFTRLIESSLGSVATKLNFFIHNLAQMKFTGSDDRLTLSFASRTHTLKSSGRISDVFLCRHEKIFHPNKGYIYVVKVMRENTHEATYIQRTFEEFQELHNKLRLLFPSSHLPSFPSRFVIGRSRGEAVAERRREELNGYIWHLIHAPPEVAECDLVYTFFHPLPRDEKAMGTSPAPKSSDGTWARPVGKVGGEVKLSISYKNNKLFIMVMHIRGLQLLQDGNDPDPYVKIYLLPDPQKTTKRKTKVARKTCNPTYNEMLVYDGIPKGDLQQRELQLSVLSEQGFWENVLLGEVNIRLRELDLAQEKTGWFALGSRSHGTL

kinases [17] = molecular target: kinases (Homo sapiens, UniProt P54646)
Chain of kinases (Homo sapiens, UniProt P54646) (P54646 whole entry): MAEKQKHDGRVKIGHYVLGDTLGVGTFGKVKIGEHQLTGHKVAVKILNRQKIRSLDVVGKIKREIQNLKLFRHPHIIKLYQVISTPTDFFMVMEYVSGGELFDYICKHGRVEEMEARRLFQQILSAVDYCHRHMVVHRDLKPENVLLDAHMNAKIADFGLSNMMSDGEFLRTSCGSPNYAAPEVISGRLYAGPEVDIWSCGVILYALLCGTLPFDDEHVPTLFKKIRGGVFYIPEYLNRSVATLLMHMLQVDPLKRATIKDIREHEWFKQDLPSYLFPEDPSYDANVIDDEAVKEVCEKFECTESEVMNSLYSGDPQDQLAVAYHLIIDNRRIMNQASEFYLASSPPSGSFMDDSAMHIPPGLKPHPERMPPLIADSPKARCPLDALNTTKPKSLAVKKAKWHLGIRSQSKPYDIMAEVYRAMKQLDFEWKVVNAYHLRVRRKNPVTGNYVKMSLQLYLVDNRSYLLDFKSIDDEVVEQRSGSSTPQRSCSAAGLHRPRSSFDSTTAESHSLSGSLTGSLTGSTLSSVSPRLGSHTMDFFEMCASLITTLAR

kinases [18] = molecular target: kinases (Homo sapiens, UniProt P49841); details: GSK3B FRET-Z-Lyte SP; Test Conc(μM):ATP Conc(μM) 1:10
kinases [19] = molecular target: kinases (Homo sapiens, UniProt Q16288); details: NTRK3 (TRKC) FRET-Z-Lyte SP; Test Conc(μM):ATP Conc(μM) 1:50
kinases [20] = molecular target: kinases (Homo sapiens, UniProt P42684); details: ABL2 (Arg) FRET-Z-Lyte SP; Test Conc(μM):ATP Conc(μM) 1:25
kinases [21] = molecular target: kinases (Homo sapiens, UniProt Q9NRA0); details: SPHK2 FRET-Adapta SP; Test Conc(μM):ATP Conc(μM) 1:10
kinases [22] = molecular target: kinases (Homo sapiens, UniProt P23458); details: JAK1 FRET-Z-Lyte SP; Test Conc(μM):ATP Conc(μM) 1:75
kinases [23] = molecular target: kinases (Homo sapiens, UniProt Q02156); details: PRKCE (PKC epsilon) Z-Lyte SP; Test Conc(μM):ATP Conc(μM) 1:25
kinases [24] = molecular target: kinases (Homo sapiens, UniProt P29597); details: TYK2 FRET-Z-Lyte SP; Test Conc(μM):ATP Conc(μM) 1:25
kinases [25] = molecular target: kinases (Homo sapiens, UniProt Q16620); details: NTRK2 (TRKB) *Mn* Z-Lyte SP; Test Conc(μM):ATP Conc(μM) 1:25
kinases [26] = molecular target: kinases (Homo sapiens, UniProt P53671); details: LIMK2 FRET-Lantha SP; Test Conc(μM) 1
kinases [27] = molecular target: kinases (Homo sapiens, UniProt P45984)
Chain of kinases (Homo sapiens, UniProt P45984) (P45984 whole entry): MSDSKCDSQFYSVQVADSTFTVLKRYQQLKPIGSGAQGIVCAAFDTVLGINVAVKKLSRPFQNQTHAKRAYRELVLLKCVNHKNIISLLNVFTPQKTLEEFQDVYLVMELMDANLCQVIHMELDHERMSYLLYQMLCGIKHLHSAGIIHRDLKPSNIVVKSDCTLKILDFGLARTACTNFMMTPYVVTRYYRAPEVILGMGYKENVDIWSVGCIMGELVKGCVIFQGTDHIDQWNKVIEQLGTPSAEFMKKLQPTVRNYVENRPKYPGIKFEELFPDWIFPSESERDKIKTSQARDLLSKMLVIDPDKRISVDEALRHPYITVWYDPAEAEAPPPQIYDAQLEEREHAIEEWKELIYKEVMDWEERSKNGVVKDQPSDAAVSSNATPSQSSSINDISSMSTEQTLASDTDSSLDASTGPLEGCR

[28] = LRRK2 FL FRET-Adapta SP, Test Conc(μM):ATP Conc(μM) 1:50
[29] = LRRK2 Hu Phos FRET-Adapta SP, Test Conc(μM):ATP Conc(μM) 1:75
[30] = AMPK (A2/B2/G1) FRET-Lantha SP, Test Conc(μM) 1
[31] = AMPK (A2/B2/G2) FRET-Lantha SP, Test Conc(μM) 1
[32] = AMPK A2/B1/G1 FRET-Z-Lyte SP, Test Conc(μM):ATP Conc(μM) 1:150
[33] = AMPK A2/B1/G2 FRET-Z-Lyte SP, Test Conc(μM):ATP Conc(μM) 1:10
[34] = AMPK A2/B1/G3 FRET-Z-Lyte SP, Test Conc(μM):ATP Conc(μM) 1:25
[35] = AMPK A2/B2/G3 FRET-Z-Lyte SP, Test Conc(μM):ATP Conc(μM) 1:50
[36] = MAPK9 (JNK2) Cascade Z-Lyte SP, Test Conc(μM):ATP Conc(μM) 1:100
[37] = MAPK9 (JNK2) FRET-Lantha SP, Test Conc(μM) 1

SMILES | Mean Inhib (%) (kinases [1]) | Mean Inhib (%) (kinases [2]) | Mean Inhib (%) (kinases [3]) | Mean Inhib (%) (kinases [4]) | Mean Inhib (%) (kinases [6]) | Mean Inhib (%) (kinases [7]) | Mean Inhib (%) (kinases [8]; [28]) | Mean Inhib (%) (kinases [8]; [29]) | Mean Inhib (%) (kinases [9]) | Mean Inhib (%) (kinases [10]) | Mean Inhib (%) (kinases [11]) | Mean Inhib (%) (kinases [12]) | Mean Inhib (%) (kinases [13]) | Mean Inhib (%) (kinases [14]) | Mean Inhib (%) (kinases [15]) | Mean Inhib (%) (kinases [16]) | Mean Inhib (%) (kinases [17]; [30]) | Mean Inhib (%) (kinases [17]; [31]) | Mean Inhib (%) (kinases [17]; [32]) | Mean Inhib (%) (kinases [17]; [33]) | other results
Cc1ccc(NC(=O)c2ccnc(N3CCOCC3)c2)cc1Nc1ccnc(N2CC(C)OC(C)C2)n1 (centres unmarked) [compound 3] | −7.8% | 9.9% | −1.6% | −2.7% | 8.6% | 9.3% | 0.5% | 13.2% | 19.5% | 1.5% | −8.8% | 2.2% | 1.2% | 2.2% | −1.6% | 3.7% | −0.8% | −1.1% | −3.5% | 11.4% | Mean Inhib (%) (kinases [5]; WNK1 FRET-Lantha SP): 2.7%; Mean Inhib (%) (kinases [17]; [34]): 7.8%; Mean Inhib (%) (kinases [17]; [35]): 3.8%; Mean Inhib (%) (kinases [18]): 6.5%; Mean Inhib (%) (kinases [19]): 3.5%; Mean Inhib (%) (kinases [20]): −1.3%; Mean Inhib (%) (kinases [21]): −9.4%; Mean Inhib (%) (kinases [22]): −1.9%; Mean Inhib (%) (kinases [23]): 12.2%; Mean Inhib (%) (kinases [24]): 6.0%; Mean Inhib (%) (kinases [25]): 1.9%; Mean Inhib (%) (kinases [26]): 0.5%; Mean Inhib (%) (kinases [27]; [36]): 17.9%; Mean Inhib (%) (kinases [27]; [37]): 5.3%
Cc1cc(Oc2ccnc(Nc3ccc(S(N)(=O)=O)cc3)c2)c(-c2ccccn2)nc1C [compound 65] | 38.0% | 9.5% | −3.1% | 1.1% | 5.9% | 0.8% | 3.0% | 6.1% | 17.2% | 21.2% | −4.5% | 2.7% | −0.9% | −4.7% | −3.0% | −0.9% | −1.2% | 1.4% | 2.9% | −6.7% | WNK1 FRET-Lantha SP Mean Mean Inhib (%) (kinases [5]; WNK1): 5.3%; Mean Inhib (%) (kinases [17]; [34]): −5.2%; Mean Inhib (%) (kinases [17]; [35]): −4.3%; Mean Inhib (%) (kinases [18]): 4.9%; Mean Inhib (%) (kinases [19]): 2.7%; Mean Inhib (%) (kinases [20]): 82.6%; Mean Inhib (%) (kinases [21]): −1.2%; Mean Inhib (%) (kinases [22]): 4.3%; Mean Inhib (%) (kinases [23]): 10.0%; Mean Inhib (%) (kinases [24]): 8.4%; Mean Inhib (%) (kinases [25]): 0.7%; Mean Inhib (%) (kinases [26]): 22.2%; Mean Inhib (%) (kinases [27]; [36]): 12.1%; Mean Inhib (%) (kinases [27]; [37]): 5.2%
